Assay results as given in patent US20240208997A1, “CYCLIC BENZIMIDAZOLE DERIVATIVES AS CGAS INHIBITORS” (Boehringer Ingelheim International GmbH, priority 2022, published 2024).

Columns and labels:
[1] = system: IFN induction in dsDNA-stimulated human whole blood; experiment: Human whole blood assay (hWB IC50), dsDNA stimulated, IFNα2α production; format: cell-based; settings: Table 1
Description: 6.3 Method: Human Whole Blood Assay (Human WB IC50)
For the detection of cellular cGAS activity human whole blood was stimulated by transfection with double stranded DNA. Pathway activity was monitored by measuring the IFNα2α production.
Compounds were delivered as 10 mM DMSO solution and serially diluted and transferred to the 96-well cell culture plate (Corning #3595), prefilled with 20 μl OptiMEM (Gibco, #11058-021) in each well, using an Echo acoustic dispenser. Typically, 8 concentrations were used with the highest concentration at 10 μM in the final assay volume followed by ^˜1:5 dilution steps. DMSO concentration was set to 0.1% in the final assay volume. The 96-well assay plate contained 10 test compounds, and DMSO in control wells.
Collection of human whole blood from 3 or more healthy donors (male or female, no medication for 7 days except contraceptive and thyroxine) as Na-Citrate blood (e.g. 3.8% in Monovettes from Sarstedt) was conducted in parallel. Whole blood was kept at room temperature for a maximum of 3 hours after collection until use in the assay. 160 μl of the whole blood samples was transferred to each well of the 96-well assay plates filled with compound/OptiMEM. All assay plates were prepared as duplicates with blood from different donors. Blood plates were kept at room temperature for 60 minutes and continuous shaking with 450 rpm, covered with the lid, but not sealed.
20 μl OptiMEM and 9.6:1 Fugene was added to all low control wells.
After covering assay plates with aera seals and the lid, blood plates were kept at room temperature for 30 minutes and continuous shaking with 450 rpm, followed by an overnight incubation of 22 h at 37° C. in the incubator, without shaking.
For the detection of IFNα-2α in human plasma, the biotinylated capture antibody (Antibody set IFNA2, Meso Scale Diagnostics #B21VH-3, including coating and capture antibody) was diluted 1:17.5 in Diluent 100 (Meso Scale Diagnostics #R50AA-4), according to the manufacturer's directions. U-Plex MSD GOLD 96-well Small Spot Strepavidin SECTOR Plates (Meso Scale Diagnostics #L45SA-5) were coated with 25 μl diluted capture antibody. Coated plates were incubated for 60 min at room temperature under continuous shaking at 700 rpm. MSD IFNα-2α plates were washed three times with 150 μl wash buffer (1× HBSS, 0.05% Tween).
After blocking the plates with 100 μl block solution/well (1× HBSS with 0.2% Tween, 2% BSA) for 60 min at room temperature and continuous shaking at 700 rpm, plates were emptied as dry as possible by dumping just before continuing with the human plasma.
Whole Blood assay plates were centrifuged at 1600 rpm for 10 minutes. 25 μl of supernatant was transferred with a pipetting robot from each whole blood plate to the corresponding IFNα-2α plate. Plates were sealed with microplate seals and kept at room temperature again under continuous shaking at 700 rpm for two hours.
Next MSD IFNα-2α plates were washed three times with 150 μl wash buffer (1× HBSS, 0.05% Tween), before adding 25 μl MSD SULFO-TAG IFNα-2α Antibody solution (1:100 diluted in Diluent 3 (Meso Scale Diagnostics #R50AP-2) to each well of the plates.
Afterwards plates were sealed with microplate seals and kept at room temperature again under continuous shaking at 700 rpm for two hours. Finally, MSD IFNα-2α plates were washed three times with 150 μl wash buffer (1× HBSS, 0.05% Tween). 150 μl 2× Read buffer was added to each well and plates were immediately measured with the MSD Sector S600 Reader using the vendor barcode.
(§1) Data Evaluation and Calculation:
For data evaluation and calculation, % control calculation of each well was based on the mean of high (DNA stimulated control) and mean of low (unstimulated control) controls by using the following formula:
[counts(sample)−counts(low))/(counts(high)−counts(low))]*100
The IC50-values were calculated using the standard 4 parameter logistic regression formula. […]

[2] = system: IFN induction in cGAMP-stimulated THP1 cells; experiment: cGAMP stimulated counter cell assay in THP1-Dual cells (THP1(cGAMP) IC50); format: cell-based, human; settings: Table 1; for IC50: Homo sapiens, THP-1, counter assay, 10 μM cGAMP stimulation, read-out: THP(cGAMP) IC50; for Ratio THP(cGAMP) IC50/THP(vir) IC50: selectivity for cGAS-inhibition
From the text: (§2) 6.2 Method: Human cGAS Cell Assay and cGAMP Stimulated Counter Cell Assay (THP1(vir) IC50 and THP1(cGAMP) IC50)
For the counter assay, cells were stimulated by cGAMP (SigmaAldrich #SML1232) to activate the identical pathway independent and directly downstream of cGAS (measurement of THP1(cGAMP) IC50).
(§3) Pathway activity was monitored by measuring the Lucia luciferase activity induced by either DNA stimulated cGAS enzyme activity (measurement of THP1(vir) IC50) or by cGAMP directly (measurement of THP1(cGAMP) IC50, counter assay).
(§4) Compounds were delivered in 10 mM DMSO solution, serially diluted and transferred to the 384 well assay plate (Greiner #781201) using an Echo acoustic dispenser. Typically, 8 concentrations were used with the highest concentration at 10 μM in the final assay volume followed by ^˜1:5 dilution steps. DMSO concentration was set to 1% in the final assay volume. The 384 well assay plate contained […] (column 1-22), and DMSO in column 23 and 24.
(§5) Cells, cultivated according to manufacturer conditions, were harvested by centrifugation at 300 g/10 min and were then resuspended and diluted to 1.66E5 cells/ml in fresh cell culture medium (RPMI 1640 (Gibco #A10491-01), 10% FCS (Gibco #10500), 1× GlutaMax (Gibco #35050-061), 1× Pen/Strep solution (Gibco #15140-122), 100 μg/ml Normocin (InvivoGen #ant-nr), 100 μg/ml Zeocin (InvivoGen #ant-zn), 10 μg/ml Blasticidin S (Life Technologies #A11139-03)). The baculovirus solution was then added 1:200 (have varied according to virus batch) to the cells (measurement of THP1(vir) IC50).
(§6) 30 μL of the cell/virus-mix were added to each well of the compound plate from column 1-23 via MultiDrop Combi dispenser (5000 cells/well). In column 24, 30 μl/5000 cells/well without virus were added as a low control.
(§7) The plates were then incubated for 18 h at 37° C. in a humidified incubator.
(§8) Following that, 15 μL of QuantiLuc detection reagent (InvivoGen #rep-qlcg5) were added to each well using a MultiDrop Combi. Measurement was done immediately after the addition using an EnVision reader (US-luminescence read-mode).
as §1
(§9) For data evaluation and calculation, the measurement of the low control was set as 0% control and the measurement of the high control was set as 100% control. The IC50 values were calculated using the standard 4 parameter logistic regression formula. Calculation: [y=(a−d)/(1+(x/c)^b)+d], a=low value, d=high value; x=conc M; c=IC50 M; b=slope

[3] = system: IFN induction in virus-stimulated THP1 cells; experiment: Human cGAS cell assay, virus-stimulated THP1-Dual cells (THP1(vir) IC50); format: cell-based; settings: THP-1, 18 h, Table 1, baculovirus-stimulated THP1-Dual cells, Lucia luciferase, 18 h, read-out: THP(vir) IC50
From the text: as §2
THP1-Dual™ cells (InvivoGen #thpd-nfis) expressing IRF dependent Lucia luciferase reporter were used as basis for both assays. For the detection of cellular cGAS activity cells were stimulated by a baculovirus (pFastbac-1, Invitrogen, no coding insert) infection that delivers the cGAS enzyme stimulating double-stranded DNA (measurement of THP1(vir) IC50).
as §3, §4, §5, §6, §7, §8, §1, §9

Compound	IC50 [1] [nM]	IC50 [2] [nM]	Ratio THP(cGAMP) IC50/THP(vir) IC50 [2]	IC50 [3] [nM]
C[C@H]1CCCCC(=O)N2CCC(CC2)n2c(nc3ccccc32)O[C@H]2C[C@@H](C(=O)O)N(C2)c2nc1nc1c2oc2ccccc21 [Example 1.25]	41	> 10000	>1251	8
C[C@@H]1CCCCC(=O)N2CCC(CC2)n2c(nc3ccccc32)O[C@H]2C[C@@H](C(=O)O)N(C2)c2nc1nc1c2oc2ccccc21 [Example 1.26]	19	15000	2687	5.5
Cc1cccc2c1nc1n2[C@@H]2CCN(C[C@H]2C)C(=O)CCCCCC(F)(F)c2nc(c3oc4ccccc4c3n2)N2C[C@H](C[C@H]2C(=O)O)O1 [Example 1.27]	1580	6000	33	180
Cc1cccc2c1nc1n2[C@H]2CCN(C[C@@H]2C)C(=O)CCCCCC(F)(F)c2nc(c3oc4ccccc4c3n2)N2C[C@H](C[C@H]2C(=O)O)O1 [Example 1.28]	28	4000	267	15
C[C@H]1CN2CC[C@@H]1n1c(nc3ccccc31)O[C@H]1C[C@@H](C(=O)O)N(C1)c1nc(nc3c1oc1ccccc13)C(F)(F)COCCCCC2=O [Example 3.01]	1	14000	32066	0.44
C[C@H]1CN2CC[C@@H]1n1c(nc3ccccc31)O[C@H]1C[C@@H](C(=O)O)N(C1)c1nc(nc3c1oc1ccccc13)C(F)(F)COCCCC2=O [Example 4.01]	1	> 10000	>14442	0.69
O=C(O)[C@@H]1C[C@H]2CN1c1nc(nc3c1oc1ccccc13)COCCCCCC(=O)N1CCC(CC1)n1c(nc3cccc(F)c31)O2 [Example 5.01]	33	> 10000	>260	38
C[C@H]1CN2CC[C@@H]1n1c(nc3cc(Cl)ccc31)O[C@H]1C[C@@H](C(=O)O)N(C1)c1nc(nc3c1oc1ccccc13)C(F)(F)OCCCCC2=O [Example 6.01]	3	> 10000	>2225	3.1
C[C@@H]1CC(=O)N2CCC(CC2)n2c(nc3ccccc32)O[C@H]2C[C@@H](C(=O)O)N(C2)c2nc(nc3c2oc2ccccc23)CCCO1 [Example 7.01]	101	3500	23	150
O=C(O)[C@@H]1C[C@H]2CN1c1nc(nc3c1oc1ccccc13)COCCCC(F)(F)C(=O)N1CCC(CC1)n1c(nc3ccccc31)O2 [Example 8.01]	35	> 10000	255	39
